Experimental data published in US20210254069A1, “COMBINATION THERAPIES COMPRISING C/EBP ALPHA SARNA” (MiNA THERAPEUTICS LIMITED, priority 2018, published 2021).
In the oligonucleotide strings, read from the 5' end, every base follows the letter of its sugar. An asterisk marks phosphorothioate; unmarked linkages are phosphodiester. Other units and linkages are bracketed, terminal groups are in braces. A string of capitals states the bases alone. [invAb] = inverted abasic unit; d = 2'-deoxy (DNA); m = 2'-O-methyl; r = 2'-OH (RNA)

Legend:
Hep3B cells [1] = assay: WST1 growth assay, CEBPA-51 with FGFR4 antibody; format: cell-based; conditions: oligo 10 nM, FGFR4 antibody where applicable, Mock, no antibody = 1.00
Method: (§1) HepB3 cells were seeded at 1×10^4 cells/well in a 96 well plate, reverse transfected with oligo at seeding and forward transfected 24 hours later. WST cell viability assay was performed as according to the manufactures' instructions (with 24 hr WST incubation). The WST alone signal has been subtracted from the cell-WST signal.
(§2) In another study, Hep3B cells were seeded at 1.0×10^5 cells/well in a 24 well plate in the presence of 30 ug/ml anti-human FGFR4 therapeutic antibody (XPA.48.056; Creative Biolabs) as applicable. Cells were transfected with either 10 nM CEBPA-51 saRNA, 10 nM Control oligo (NC) or transfection agent alone (Mock) at seeding and this was repeated 24 hours post- seeding and culture medium changed at 48 hours. FGFR antibody treatment was maintained throughout the experiment. Cells were harvested for RNA collection 72 hours post-seeding qRT-PCR analysis.
Treatment of Hep3B cells with FGFR4 antibody reduced cell viability. Combination treatment of both FGFR4 antibody and CEPBA-51 further reduced cell viability as monitored by WST1 growth assay (Table 9A, 96 hours; Table 9B, 120 hours).

CEBPA-mRNA = assay: qRT-PCR of CEBPA mRNA, CEBPA-51 with FGFR4 antibody; format: cell-based; conditions: Hep3B; oligo 10 nM, anti-human FGFR4 antibody 30 ug/ml where applicable; 72 hours post-seeding; Mock, no antibody = 1.00
Method: RNA was isolated from cultured cells using the RNeasy Mini Kit (QIAGEN). RNA was quantitated using a Qiaxpert (Qiagen), and reverse transcribed using the Quantitect Reverse Transcription Kit (QIAGEN). Relative expression levels were determined by qPCR using Quantifast SYBR Green Master Mix (QIAGEN) on a Quantstudio 5 (Qiagen). The following Quantitect Primer Assays (QIAGEN) were used: CEBPA_1_SG, FGFR4_1_SG and GAPDH_1_SG. Relative expression was determined the DDCt method normalized to GAPDH expression.
as §2

Hep3B cells [2] = assay: WST-1 growth assay, siFGFR4 / CEBPA-51; format: cell-based; conditions: 20 nM, Mock = 1.00
Method: HepB3 cells were grown in DMEM supplemented with 10% fetal bovine serum (FBS), 2 mM L-glutamine, and penicillin/streptomycin in a 5% CO2 incubator. Transfections were performed using 2 μL of Lipofectamine 2000 (Life Technologies) per well in 24 well plate.
as §1

HCC [3] = conditions: single agent, published Phase III; cited from earlier work
HCC [4] = conditions: CHECKMATE-040 subgroup, cited from earlier work
[5] = tested on: Nexavar resistant BNL tumour; assay: Sorafenib-resistant BNL subcutaneous tumour model; format: in vivo, mouse; conditions: after 3 weeks; MTL-CEBPA 4.2 mg/kg IV d1, d3, d5; anti-PD1 250 ug IP d1, d3, d5; Sorafenib 30 mg/kg PO daily
Method: Cell Culture: The mouse hepatocellular carcinoma cell line BNL was maintained in Dulbecco's modified Eagle's medium (DMEM, Gibco by Invitrogen) with […] G418 (Merck, Germany), 1% antibiotic antimycotic (Gibco by Invitrogen) and 10% fetal bovine serum (Gibco by Invitrogen) and cultured at 37° C. in a humidified atmosphere.
Tumour Inoculation and Experimental design: Each BALB/c mice were injected subcutaneously (s.c.) on the flank with 3×10^5 BNL-Luc cells in 0.05 ml of PBS. After inoculation for 3 weeks, Nexavar® (Sorafenib) was orally administered every day for two weeks (30 mg/kg/day).
The selected animals were randomized into the 7 treatment groups (Table 18).
60 mice were injected with 3×10^5 of BNL-Luc cells in […] mixture of PBS. After 3 weeks, the mice were dosed with 30 mg/kg of Sorafenib p.o. every day for 2 weeks. […] The 7 groups included PBS as Control group [PBS]; MTL-CEBPA [C], ([…], I.V., d1, d3, d5); anti-PD1 antibody [P] (250 ug, I.P., d1, d3, d5); Nexavar® (Sorafenib) [N] (30 mg/kg, P.O. daily); MTL-CEBPA+anti-PD1 [C+P]; MTL-CEBPA+Nexavar® (Sorafenib) [C+N] and MTL-CEBPA+anti-PD1+Nexavar® (Sorafenib) [C+P+N].

alpha-fetoprotein (AFP) = assay: DEN rat HCC model, serum alpha-fetoprotein; format: in vivo; conditions: DEN rats, 2 weeks dosing, PBS 27
Method: (§3) Male Wistar rats (150-180 g) at 7 weeks of age were obtained from the Animal Center of National Taiwan University. The rats were housed in standard conditions, and all the experiments were conducted in accordance with the “Guide for the Care and Use of Laboratory Animals” prepared by the Institutional Animal Care and Use Committee of National Taiwan University. The rats were given DEN solution daily (Sigma, St Louis, Mo.) as the sole source of drinking water for 6 weeks, followed by 3 weeks of regular water. The DEN solution feeding started with 100 ppm in the first week. The average bodyweight (BW) of the animals was measured once a week per group of five rats, and the concentration of DEN in their drinking water was adjusted in proportion to the BW each week relative to that of the first week. […]
The serum levels of ALT, AST and total bilirubin were measured with VITROS 5.1 FS Chemistry Systems (Ortho-Clinical Diagnostics, Inc.). The serum level of rat alpha-fetoprotein was evaluated with anti-Rat AFP ELISA Kit (USCN life company/China), following the instructions of the manufacturer.
Serum levels of alpha-fetoprotein (AFP) were measured before treatment and compared to measurement after treatment and represented as ‘AFP change’ (mg/dl). Serum AFP change was measured in each group. […]

HCC rat DEN model = assay: DEN rat HCC model, tumour volume; format: in vivo; conditions: DEN rats; treated 3x/week for 2 weeks (MTL-CEBPA i.v.; sorafenib P.O. 10 mg/kg); sacrifice day 15; PBS 644.7
Method: as §3
On 15th day after treatment, the animals were sacrificed and tumour size and tumour/liver weight were measured. The body, liver, lung, and spleen were weighed, and the aspects of all organs were recorded. After the animals were sacrificed, all liver lobes were promptly removed and weighed, and the diameters of all of the macroscopically visible nodules on the liver surface and in the 5-mm sliced sections were measured. Tumour burden was determined in terms of two criteria: the ratio of liver weight/BW, and the total volume of all the tumour nodules with diameter >3 mm. […]

advanced HCC = conditions: cited from earlier work

## NC: Negative control oligonucleotide siFLUC, SEQ ID NO: 6 and 7 (chain 1 rCmUmUrAmCrGmCmUrGrArGmUrAmCmUmUmCrGrAdT*dT; chain 2 rUrCrGrArArGmUrArCrUmCrArGrCrGmUrArArGdT*dT)
Hep3B cells [1]; 96 hours after treatment
  Normalized cell viability: 0.48
Hep3B cells [1]; 120 hours after treatment
  Normalized cell viability: 0.59
CEBPA-mRNA
  CEBPA-mRNA relative expression: 0.89
Hep3B cells [2]; 96 hours after treatment
  Normalized cell viability: 0.62
Hep3B cells [2]; 120 hours after treatment
  Normalized cell viability: 0.70

## COc1cc2nccc(Oc3ccc(NC(=O)NC4CC4)c(Cl)c3)c2cc1C(N)=O [lenvatinib]
HCC [3]
  partial responses, share of patients: 24%

## Nivolumab: PD-1 inhibitor, Human IgG
HCC [4]
  responders with responses lasting 6 months or longer: 91%
  responders with responses lasting 12 months or longer: 55%
HCC [4]; HCC patients, 95% CI: 9.2, 20.8
  overall response rate: 14.3%
HCC [4]; HCC patients
  complete responses: 3
  partial responses: 19

## CNC(=O)c1cc(Oc2ccc(NC(=O)Nc3ccc(Cl)c(C(F)(F)F)c3)cc2)ccn1 [Sorafenib]
HCC [3]
  complete responses, share of patients: 0%
  partial responses, share of patients: 2%
[5]
  reduction in tumour volume: no effect
  reduction in tumour weight: no effect
alpha-fetoprotein (AFP)
  AFP change (pre-treatment vs post-treatment), Mean: -36.83 mg/dL
HCC rat DEN model
  Tumor volume, Mean: 299.5 mm^3
Advanced HCC; patients with advanced HCC
  decrease in the risk of death: 31%
Advanced HCC; patients with advanced disease, placebo 7.9 months
  median survival: 10.7 months

## CEBPA-51: saRNA duplex that upregulates C/EBPa; antisense SEQ ID No. 1, sense SEQ ID No. 2 (sense GCGGUCAUUGUCACUGGUCUU; antisense GACCAGUGACAAUGACCGCUU; sense: sugars from the 5' end mmrmrrrrrmrrrmrrrrrmm, [invAb] at 5' end, backbone not given here; antisense: sugars from the 5' end r19 m2, backbone not given here; further chemistry not fully specified)
Hep3B cells [1]; 96 hours after treatment
  Normalized cell viability: 0.32
Hep3B cells [1]; 120 hours after treatment
  Normalized cell viability: 0.25
CEBPA-mRNA
  CEBPA-mRNA relative expression: 1.31
